What was measured:
[1] = test system: CFTR-/- kits; assay: Oral UDCA therapy of CFTR-/- kits (neonatal clinical care, blood chemistries); assay type: in vivo, ferret; conditions: Golytely and antibiotics
Experimental: Neonatal clinical care of CFTR^−/− kits. Two treatment protocols were developed to enhance post-natal survival and reduce the risk of intestinal obstruction caused by MI. Both protocols included administering metronidazole (5 mg/kg in 100 uL of dextrose saline, s.c.) 4× daily beginning at the time of birth, and starving the animals for the first 3 hours after birth and then administering a 150-200 μL Golytely® gavage (Braintree Laboratories Inc.) using a fire polished microloader pipette tip (Eppendorf Inc.) (FIG. 27 for example of gavage tube components). The gavage was repeated every 6 hours up to three times, until meconium was passed. […] When CFTR^−/− kits were weaned at 5 weeks of age, they were fed a slurry of Elecare hydrated solid chow (Marshall Farms) 2× daily, mixed with 1 lipase Unit per 10 gram body weight of Viokase-V (the amount of food eaten with each feeding was recorded for these calculations).
Blood chemistries. […] Mammalian Liver Profile rotors from Abaxis were used, and assessed plasma levels of: alkaline phosphatase (AP), alanine aminotransferase (ALT), bile acids (BA), total bilirubin (TBiI), total cholesterol (CHOL), gamma glutamyl transferase (GGT), and blood urea nitrogen (BUN). […]
For these reasons, it was determined whether oral UDCA therapy of CFTR^−/− kits might normalize liver function and improve nutrition. […]

[2] = test system: submucosal glands of CFTR-/- tracheas; assay: Functional measurement of gland secretions in tracheal xenografts; design: species or system ferret; conditions: 30 minute stimulation
Experimental: Functional measurement of gland secretions in tracheal xenografts. Rates of mucous secretion from single submucosal glands were determined on excised CFTR^+/+, CFTR^+/−, and CFTR^−/− tracheal xenografts, as previously described in Joo et al. (2001), with modification to optimize xenograft viability. Xenografts were harvested and placed in minimal essential medium (MEM) with antibiotics, and shipped overnight at 4° C. from the University of Iowa to Stanford University. Tracheal xenografts were open along the posterior trachealis muscle, and dissected tracheal segments were mounted mucosal-side-up in a chamber without removing the cartilage at 4° C. […] Digital images of the spherical mucous bubbles under mineral oil were obtained at 5 minute intervals, based on which the secretory rates for individual glands was calculated using ImageJ software (NIH, MD). […] To confirm that differences in glandular secretory rates between CF and non-CF xenografts were not due to differences in gland size, we performed morphometric analysis on the samples analyzed. […] The unit length of the surface airway basal lamina and the glandular area were measured for each section using Metamorph software. […] On average about 75 photomicrographs were evaluated for each xenograft sample (N=5 for non-CF and N=6 for CF).

## C[C@H](CCC(=O)O)[C@H]1CC[C@H]2[C@@H]3[C@@H](O)C[C@@H]4C[C@H](O)CC[C@]4(C)[C@H]3CC[C@]12C [UDCA, ursodeoxycholic acid]
[1]; 4 of 20 CFTR-/- kits treated with UDCA
  survival of CFTR-/- kits that did not die of MI: 5 to 9 days
[1]; among 20 CFTR-/- kits treated with UDCA
  number of kits that died of MI: 16

## C[N+](C)(C)CCOC(N)=O [carbachol]
[2]; secretion in response to 1 μM carbachol
  reduction of fluid secretion from submucosal glands, CFTR-/- versus non-CF tracheas: reduced by half

## C=C[C@@]1(C)CC(=O)[C@]2(O)[C@@]3(C)[C@@H](O)CCC(C)(C)[C@@H]3[C@H](O)[C@H](OC(C)=O)[C@@]2(C)O1 [forskolin]
[2]; secretion in response to 3 μM forskolin
  reduction of fluid secretion from submucosal glands, CFTR-/- versus non-CF tracheas: 7.4 fold

— US20110054247A1, “METHODS FOR CLONING FERRETS AND TRANSGENIC FERRET MODELS FOR DISEASES” (UNIVERSITY OF IOWA RESEARCH FOUNDATION, priority 2009, published 2011)
